Where two headings read alike, the source gives them in different places.
Assays:
allergic rhinitis [1] = settings: phase II; cited from earlier work
allergic rhinitis [2] = settings: intranasal, phase I/II; cited from earlier work
SYK lysate = target: T1, SYK lysate (Homo sapiens, UniProt P43405); assay: Basic Syk Enzyme Activity; assay type: biochemical; settings: read-out: average pIC50 (converted)
T1 construct: Stimulation of Ramos Cells with Anti-IgM Ab to Produce Syk & Preparation of Lysates; endogenous in cells; host or cells: Ramos B cells (human Burkitt's lymphoma, clone 296.4C10, ATCC), stimulated with anti-IgM and lysed in 1% Triton X-100
Protocol: 3 μl of SYK lysate diluted 16-fold in assay buffer (20 mM TRIS pH 7.4, 0.01% BSA, 0.1% Pluronic F-68) was added to wells containing 0.1 μl of various concentrations of compound or DMSO vehicle (1.7% final) in a Greiner low volume 384 well black plate. Following 15 min pre-incubation at room temperature, the reaction was initiated by the addition of 3 μl of substrate reagent containing Y7 Sox peptide, (Invitrogen Cat. # KNZ3071, 5 μM final), ATP (35 μM final) and MgCl2 (10 mM final) in assay buffer. The reaction was incubated at room temperature before measuring fluorescence intensity (λex 360/λem 485) on an Envision plate reader (Perkin Elmer Life Sciences, Waltham, Mass., USA) at 15 min and 55 min post-substrate addition.
Ramos B Cells (human B cells of Burkitt's lymphoma, clone 296.4C10, ATCC) were cultured in suspension in growth medium (RPMI-1640, Sigma; supplemented with 2 mM L-glutamine, Gibco; 10 mM Hepes, Sigma; 1 mM sodium pyruvate, Sigma; 10% v/v heat-inactivated FCS, Gibco). Cells were grown in Corning Cellstacks (6360 cm^2) in 1 liter volume and viability and cell density were monitored daily. Cells were maintained at <1.5×10e6/ml and >92% viability.
Cells were stimulated at 20×10^6 cells/ml using 15 ug/ml (final concentration) anti-IgM antibody. Following harvest (as described above), a total of 4×10^9 cells were resuspended in 180 ml pre-warmed (37° C.) DPBS in a Corning 500 ml centrifuge bottle. 20 ml anti-IgM antibody at 150 ug/ml were added to each 500 ml centrifuge bottle (working stock made up in DPBS pre-warmed to 37° C.). Cells were incubated for exactly 5 min at 37° C. following the addition of anti IgM antibody. Following 5 min stimulation, 300 ml ice-cold DPBS were added to each bottle to stop the stimulation (temperature drops to ˜12° C.) then cells were centrifuged at 2000 rpm (Sorvall Legend RT+ centrifuge—pre-chilled to 4° C.). Cells were washed by resuspension in ice-cold DPBS and centrifugation as above. The cell pellet was then lysed in ice-cold lysis buffer containing 1% triton-x-100 at a ratio of 150 ul/1×10^7 cells (i.e. 48 ml lysis buffer). Following the addition of lysis buffer, the cells were pipetted up & down & kept on ice for 15 min. The clarified lysate was then obtained by centrifugation (Sorvall Evolution RC (SLA-1500 rotor, ˜20,000 g (˜14,500 rpm), 45 min, 4° C.).
Lysate was aliquoted, snap-frozen on dry-ice & stored at −80° C. prior to assay.
Lysis Buffer: 50 mM TRIS pH7.5+150 mM NaCl+1% Triton-X-100+2 mM EGTA+1:100 dilution inhibitor cocktails (phosphatase inhibitor cocktail set II, calbiochem cat no. 524625 & protease inhibitor cocktail set V, calbiochem cat no. 539137)

Whole blood B cells = assay: CD69 Whole Blood Assay; assay type: cell-based; settings: Homo sapiens, B-cell, anti-IgM stimulated
Protocol: Whole blood B cells are stimulated ex-vivo using anti-IgM. […] The subsequent autophosphorylation of Syk leads to initiation of a signalling cascade resulting in B cell activation as indicated by expression of the activation marker CD69 on the cell surface. CD20/CD69+ve whole blood B cells are detected by flow cytometry.
100 μl heparinised human blood was added to a 5 ml polypropylene tube containing 1 μl appropriately diluted compound solution and incubated for 25 min at 37° C. with 5% CO2. B cells were stimulated with 10 μl Fab′2 fragments of goat anti-human IgM (43 μg/ml final concentration) for a further 3.5 h under the conditions previously described. The red blood cells were lysed and all other cells fixed by the addition of 2 ml Lyse/Fix buffer for 10 min at room temperature.
The cells were stained using a cocktail of mouse anti-human CD20 FITC and mouse anti-human CD69 PE conjugated antibodies. CD20/CD69+ve B cells present in the sample were detected by flow cytometry.
Compound was prepared as a 10 mM stock in DMSO, further diluted down in DMSO to 1 mM and a dilution series prepared in DMSO using 7 successive 3-fold dilutions to give the final concentration range to be tested of 1×10^−5 to 4.57×10^−9M. Compound dilutions were prepared using the Biomek 2000 automated robotic pipetting system.

hERG = target: T2, hERG (Homo sapiens, UniProt Q12809); assay: Cy3B Dofetilide Fluoro-Ligand Binding Assay for hERG; settings: membranes of CHO-K1 cells that express hERG, pH 7.4, probe Cy3b-Dofetilide fluoro-ligand, 1.0 nM, hERG-expressing CHO-K1 membranes
T2 construct: expressed in transfected cells; host or cells: CHO-K1 cells stably expressing human hERG; membrane fraction
Protocol: Compound potencies were determined by a fluoro-ligand^§ (Cy3b-Dofetilide) fluorescence polarisation assay.
hERG-expressing CHO-K1 membranes* (60 μg/ml) were incubated with 1.0 nM fluoro-ligand^§, in assay buffer (25 mM HEPES, 1.2 mM MgCl2, 100 mM KCl and 0.1% pluronic, pH adjusted to 7.4 using 5M KOH). The final potassium concentration in the assay was 100 mM. After 70 min mixing at room temperature, in the dark, 10 μl was dispensed into each well of a black LV Greiner 384-well plate containing 0.1 μl of test compound in DMSO. The plates were left to equilibrate for 2 h before reading on an Acquest™/Analyst™ imager. pIC50 data were generated using from an 11-point inhibition curve (top assay concentration of 50 μM and a 1:3 step-dilution), a […] curve-fit being applied using ABase and XC50 to analyse data and generate curve fits.
Chinese Hamster Ovary (CHO) cells stably expressing the human hERG receptor were grown to 80% confluency before being harvested by trypsinisation and subsequent centrifugation at 500 g for 10 min. Cell pellets were frozen at −80 C before membrane production. The frozen pellet was thawed on ice, re-suspended and homogenised in 10 volumes of membrane buffer (50 mM HEPES, pH 7.4, 1 mM EDTA, 1 mM PMSF, 2×10^-6M Pepstatin A). The membrane suspension was centrifuged for 20 min at 500 g, the pellet discarded and the supernatent spun again at 48,000 g for 30 min. Following the second centrifugation the remaining pellet containing the membrane fraction was re-suspended in an appropriate volume (4 ml for each ml of frozen cell pellet) and assayed for protein concentration.

[3] = test system: B-Cell non-Hodgkin's lymphoma (NHL); settings: cited from earlier work
B lymphoma (BKS-2) = settings: mouse, in vivo; cited from earlier work
[4] = hydrochloric acid salts, read-out: average IC50
[5] = hydrochloric acid salts, read-out: average pIC50 (converted)
[6] = as the free base, read-out: average IC50
[7] = as the free base, read-out: average pIC50 (converted)
[8] = form not stated (first list), read-out: average pIC50 (converted)

T2 sequence (Q12809 whole entry): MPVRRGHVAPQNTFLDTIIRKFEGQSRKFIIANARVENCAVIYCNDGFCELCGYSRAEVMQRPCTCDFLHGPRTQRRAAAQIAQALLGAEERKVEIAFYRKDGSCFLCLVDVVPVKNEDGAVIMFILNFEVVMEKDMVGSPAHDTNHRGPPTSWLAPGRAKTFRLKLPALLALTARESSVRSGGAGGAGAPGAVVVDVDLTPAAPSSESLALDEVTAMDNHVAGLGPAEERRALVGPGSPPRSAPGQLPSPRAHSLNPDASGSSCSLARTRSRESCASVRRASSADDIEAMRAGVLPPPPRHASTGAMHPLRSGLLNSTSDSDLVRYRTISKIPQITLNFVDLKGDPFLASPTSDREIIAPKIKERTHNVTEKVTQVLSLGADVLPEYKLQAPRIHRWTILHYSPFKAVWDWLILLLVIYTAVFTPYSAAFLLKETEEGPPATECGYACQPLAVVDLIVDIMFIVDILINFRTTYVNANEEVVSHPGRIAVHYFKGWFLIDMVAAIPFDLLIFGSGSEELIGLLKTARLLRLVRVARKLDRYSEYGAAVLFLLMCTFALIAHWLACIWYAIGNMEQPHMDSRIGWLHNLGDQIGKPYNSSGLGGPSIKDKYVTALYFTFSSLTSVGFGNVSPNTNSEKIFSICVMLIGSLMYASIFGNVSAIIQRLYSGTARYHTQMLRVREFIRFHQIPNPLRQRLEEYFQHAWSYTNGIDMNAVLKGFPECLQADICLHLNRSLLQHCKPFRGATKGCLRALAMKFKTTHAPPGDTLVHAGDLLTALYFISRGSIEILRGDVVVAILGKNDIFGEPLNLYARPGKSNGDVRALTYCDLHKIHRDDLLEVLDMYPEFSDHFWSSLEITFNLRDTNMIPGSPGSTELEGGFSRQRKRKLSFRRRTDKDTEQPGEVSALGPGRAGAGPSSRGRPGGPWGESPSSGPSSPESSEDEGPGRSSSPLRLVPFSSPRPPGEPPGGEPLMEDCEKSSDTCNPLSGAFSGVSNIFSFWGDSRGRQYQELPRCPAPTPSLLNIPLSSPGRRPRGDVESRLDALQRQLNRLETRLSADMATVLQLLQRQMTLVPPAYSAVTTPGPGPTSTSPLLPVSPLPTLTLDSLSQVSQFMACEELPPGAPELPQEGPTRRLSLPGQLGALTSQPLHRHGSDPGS

| IC50 (SYK lysate; as the free base) [nM] | IC50 (Whole blood B cells; [6]) [nM] | IC50 (Whole blood B cells; [7]) [nM] | Structure (SMILES) | IC50 at 2 h (hERG; [6]) [nM] | IC50 at 2 h (hERG; [8]) [nM] | further results |
| --- | --- | --- | --- | --- | --- | --- |
|  |  |  | Oc1cccc(Nc2ncc(F)c(Nc3cccc(O)c3)n2)c1 [Example R112] |  |  | efficacy versus placebo (allergic rhinitis [1]): lack of efficacy; PGD2 (allergic rhinitis [2]): statistically significant decrease; clinical safety (allergic rhinitis [2]): safe across a range of indicators |
|  |  |  | OCCn1cc(-c2cc3ncccc3c(NC[C@]3(F)CCCNC3)n2)cn1 [Example 6, 2-{4-[5-({[(3S)-3-fluoro-3-piperidinyl]methyl}amino)-1,6-naphthyridin-7-yl]-1H-pyrazol-1-yl}ethanol] |  |  | IC50 (SYK lysate; hydrochloric acid salts): ≤ 316 nM; IC50 (Whole blood B cells; [4]): < 1000 nM; IC50 (Whole blood B cells; [5]): ≤ 1000 nM; IC50 at 2 h (hERG; [4]): > 20000 nM; IC50 at 2 h (hERG; [5]): > 10000 nM |
| ≤ 100 | < 1000 | ≤ 1000 | FC(F)(F)Cn1cc(-c2cc3ncccc3c(NCC3(F)CCCNC3)n2)cn1 (single isomer, unassigned) [Example 9A, N-{[3-fluoro-3-piperidinyl]methyl}-7-[1-(2,2,2-trifluoroethyl)-1H-pyrazol-4-yl]-1,6-naphthyridin-5-amine] | > 10000 | > 10000 |  |
| ≤ 100 | < 1000 | ≤ 1000 | CC(C)n1cc(-c2cc3ncccc3c(NCC3(F)CCCNC3)n2)cn1 (single isomer, unassigned) [Example 11A, N-{[3-fluoro-3-piperidinyl]methyl}-7-[1-(1-methylethyl)-1H-pyrazol-4-yl]-1,6-naphthyridin-5-amine] | > 10000 | > 10000 |  |
| ≤ 100 | < 1000 | ≤ 1000 | FC1(CNc2nc(-c3cnn(Cc4ccccc4)c3)cc3ncccc23)CCCNC1 (racemic) [Example 10, N-[(3-fluoro-3-piperidinyl)methyl]-7-[1-(phenylmethyl)-1H-pyrazol-4-yl]-1,6-naphthyridin-5-amine] | > 10000 | > 10000 |  |
| ≤ 100 |  | ≤ 1000 | CC(C)(O)Cn1cc(-c2cc3ncccc3c(NC[C@]3(F)CCCNC3)n2)cn1 [Example 5, 1-{4-[5-({[(3S)-3-fluoro-3-piperidinyl]methyl}amino)-1,6-naphthyridin-7-yl]-1H-pyrazol-1-yl}-2-methyl-2-propanol] | > 10000 | > 10000 |  |
|  |  |  | COc1cc(Nc2ncc(F)c(Nc3ccc4c(n3)N(COP(=O)(O)O)C(=O)C(C)(C)O4)n2)cc(OC)c1OC [Example R788, fostamatinib disodium] |  |  | therapeutic benefit ([3]; patients with DLBCL and CLL/SLL): therapeutic benefit; tolerability ([3]; patients with relapsed or refractory B-Cell NHL): well-tolerated |
|  |  |  | COc1cc(/C=C/C(=O)CC(=O)/C=C/c2ccc(O)c(OC)c2)ccc1O [curcumin] |  |  | tumour burden as measured by the total splenocyte number (B lymphoma (BKS-2)): significant reduction |
| ≤ 100 | < 1000 | ≤ 1000 | COCCn1cc(-c2cc3ncccc3c(NC[C@]3(F)CCCNC3)n2)cn1 [Example 7, N-{[(3S)-3-fluoro-3-piperidinyl]methyl}-7-{1-[2-(methyloxy)ethyl]-1H-pyrazol-4-yl}-1,6-naphthyridin-5-amine] | > 10000 | > 10000 |  |
| ≤ 100 | < 1000 | ≤ 1000 | FC1(CNc2nc(-c3cnn(C4CCCC4)c3)cc3ncccc23)CCCNC1 (racemic) [Example 8, 7-(1-cyclopentyl-1H-pyrazol-4-yl)-N-[(3-fluoro-3-piperidinyl)methyl]-1,6-naphthyridin-5-amine] | > 10000 | > 10000 |  |

— patent US8633319B2, “7-(1H-pyrazol-4-yl)-1,6-naphthyridine compounds as Syk inhibitors” (Glaxo Group Limited, priority 2010, dated 2014)
